In publication PMC10549826 (Antiviral research, 2023):

Molecular target: A/Victoria/361/2011 NA, wild-type sequence Q136, T148, R150, T439 (recombinant PR8-based A(H3N2) virus) (Influenza A virus, UniProt G9LQ08)
Type: biochemical

`CCC(CC)[C@H](NC(C)=O)[C@@H]1[C@H](O)[C@@H](C(=O)O)C[C@H]1N=C(N)N` [Peramivir, peramivir] was tested, and the IC50 was 0.07 ± 0.01 nM.
